According to article PMC11882969 (Nature Communications, 2025):
Several values for one entry are separate records, joined by “and”; a condition that tells them apart may be missing. Equal values may be shown once.

Biological target: hCB1 (Homo sapiens, UniProt P21554)
Assay: bioSensAll ebBRET signaling profiling, hCB1
Type: cell-based
Design: host or cells: HEK293SL cells, transient PEI transfection
Conditions: for Gi1 hCB1 response: Gi1 biosensor; for Gi1 hCB1 / GoB hCB1: single replicate values, FigS6a
[1] = Log [Compound] (M) -13, individual replicate values

Chain of hCB1 (P21554 whole entry): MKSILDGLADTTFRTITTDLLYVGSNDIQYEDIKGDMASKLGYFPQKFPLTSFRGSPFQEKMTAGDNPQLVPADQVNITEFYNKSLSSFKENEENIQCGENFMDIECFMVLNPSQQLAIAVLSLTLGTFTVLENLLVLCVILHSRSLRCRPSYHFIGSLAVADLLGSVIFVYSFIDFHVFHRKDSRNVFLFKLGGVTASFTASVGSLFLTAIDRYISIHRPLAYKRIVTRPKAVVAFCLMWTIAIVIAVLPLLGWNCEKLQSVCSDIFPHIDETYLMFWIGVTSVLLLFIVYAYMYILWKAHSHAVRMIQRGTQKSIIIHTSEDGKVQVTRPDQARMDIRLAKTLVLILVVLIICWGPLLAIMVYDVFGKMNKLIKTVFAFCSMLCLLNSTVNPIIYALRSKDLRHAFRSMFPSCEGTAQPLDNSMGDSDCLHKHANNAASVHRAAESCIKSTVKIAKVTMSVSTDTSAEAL

In the case of `Cc1cc(C(=O)N2CC3(CCC3)[C@@H]2[C@@H]2CCCO2)nn1-c1cccc(C(F)(F)F)c1` [‘3386], the “Gi1 hCB1 response” value (Log [Compound] (M) -4.22186) is reported as -31.6589, the “Gi1 hCB1 response” value (Log [Compound] (M) -4.63927) is reported as -26.0187 and the “Gi1 hCB1 response” value (Log [Compound] (M) -5.47381) is reported as -11.5379. For the same compound, the “Gi1 hCB1 response” value (Log [Compound] (M) -5.89285) was -4.6, the “Gi1 hCB1 response” value (Log [Compound] (M) -6.31878) was 6.86 and the “Gi1 hCB1 response” value (Log [Compound] (M) -6.72585) was -4.577. The “Gi1 hCB1 response” value (Log [Compound] (M) -7.14267) was -3.682, the “Gi1 hCB1 response” value (Log [Compound] (M) -7.55284) was 0.369 and the “Gi1 hCB1 response” value (Log [Compound] (M) -8) was -1.959. The “Gi1 hCB1 response” value (Log [Compound] (M) -8.22186) was -1.847, the “Gi1 hCB1 response” value (Log [Compound] (M) -8.39794) was 6.792 and the “Gi1 hCB1 response” value (Log [Compound] (M) -8.68787) was 5.83. For the same compound, the “Gi1 hCB1 response” value (Log [Compound] (M) -9.15521) was -6.435, the “Gi1 hCB1 response” value (Log [Compound] (M) -9.61989) was 5.561 and the “Gi1 hCB1 response” value (Log [Compound] (M) -10.0969) was -3.167. For the same compound, the “Gi1 hCB1 response” value (Log [Compound] (M) -10.5529) was 5.808, the “Gi1 hCB1 response” value (Log [Compound] (M) -11.0177) was 14.3798 and the “Gi1 hCB1 response” value (Log [Compound] (M) -11.4949) was 4.331. The “Gi1 hCB1 response” value (Log [Compound] (M) -11.9208) was 0.6376, the “Gi1 hCB1 response” value (Log [Compound] (M) -12.3979) was 3.01 and the “Gi1 hCB1 response” value (Log [Compound] (M) -12.8861) was 17.2222. For the same compound, the “Gi1 hCB1 response” value [1] was 0.5257 and -2.921, the “Gi1 hCB1” value (Log [Compound] (M) -4.22186) was -5.415 and the “GoB hCB1” value (Log [Compound] (M) -4.22186) was -7.725. For the same compound, the “Gi1 hCB1” value (Log [Compound] (M) -4.63927) was -6.833, the “GoB hCB1” value (Log [Compound] (M) -4.63927) was -8.211 and the “Gi1 hCB1” value (Log [Compound] (M) -5.05788) was -4.3047. For the same compound, the “GoB hCB1” value (Log [Compound] (M) -5.05788) was -5.316, the “Gi1 hCB1” value (Log [Compound] (M) -5.47381) was -2.408 and the “GoB hCB1” value (Log [Compound] (M) -5.47381) was -3.409. For the same compound, the “Gi1 hCB1” value (Log [Compound] (M) -5.89285) was -1.499, the “GoB hCB1” value (Log [Compound] (M) -5.89285) was -1.485 and the “Gi1 hCB1” value (Log [Compound] (M) -6.31878) was 1.292. The “GoB hCB1” value (Log [Compound] (M) -6.31878) was 2.327, the “Gi1 hCB1” value (Log [Compound] (M) -6.72585) was 0.5361 and the “GoB hCB1” value (Log [Compound] (M) -6.72585) was 1.033. For the same compound, the “Gi1 hCB1” value (Log [Compound] (M) -7.14267) was 0.4282, the “GoB hCB1” value (Log [Compound] (M) -7.14267) was 0.7269 and the “Gi1 hCB1” value (Log [Compound] (M) -7.55284) was 0.9215. The “GoB hCB1” value (Log [Compound] (M) -7.55284) was 3.892, the “Gi1 hCB1” value (Log [Compound] (M) -8) was 0.7057 and the “GoB hCB1” value (Log [Compound] (M) -8) was 1.158. The “Gi1 hCB1” value (Log [Compound] (M) -8.22186) was 1.7386, the “GoB hCB1” value (Log [Compound] (M) -8.22186) was -4.075 and the “Gi1 hCB1” value (Log [Compound] (M) -8.39794) was -1.406. The “GoB hCB1” value (Log [Compound] (M) -8.39794) was 4.1437, the “Gi1 hCB1” value (Log [Compound] (M) -8.68787) was 1.2761 and the “GoB hCB1” value (Log [Compound] (M) -8.68787) was -1.251. The “Gi1 hCB1” value (Log [Compound] (M) -9.15521) was 1.261, the “GoB hCB1” value (Log [Compound] (M) -9.15521) was -3.967 and the “Gi1 hCB1” value (Log [Compound] (M) -9.61989) was 1.816. For the same compound, the “GoB hCB1” value (Log [Compound] (M) -9.61989) was -0.8377, the “Gi1 hCB1” value (Log [Compound] (M) -10.0969) was 0.3511 and the “GoB hCB1” value (Log [Compound] (M) -10.0969) was 1.158. For the same compound, the “Gi1 hCB1” value (Log [Compound] (M) -10.5529) was 1.014, the “GoB hCB1” value (Log [Compound] (M) -10.5529) was 1.536 and the “Gi1 hCB1” value (Log [Compound] (M) -11.0177) was 0.7982. The “GoB hCB1” value (Log [Compound] (M) -11.0177) was 0.4571, the “Gi1 hCB1” value (Log [Compound] (M) -11.4949) was 1.029 and the “GoB hCB1” value (Log [Compound] (M) -11.4949) was 2.058. For the same compound, the “Gi1 hCB1” value (Log [Compound] (M) -11.9208) was -0.1422, the “GoB hCB1” value (Log [Compound] (M) -11.9208) was 1.68 and the “Gi1 hCB1” value (Log [Compound] (M) -12.3979) was 0.5053. For the same compound, the “GoB hCB1” value (Log [Compound] (M) -12.3979) was 2.184, the “Gi1 hCB1” value (Log [Compound] (M) -12.8861) was -0.04972 and the “GoB hCB1” value (Log [Compound] (M) -12.8861) was 1.176. The “Gi1 hCB1” value (Log [Compound] (M) -13) was 2.124 and 3.311 and the “GoB hCB1” value (Log [Compound] (M) -13) was 2.399 and 2.327.
With `Cc1cc(C(=O)N2CC3(CCC3)[C@@H]2[C@H]2CCCO2)nn1-c1cccc(C(F)(F)F)c1` (single isomer, unassigned) [compound 430] the “Gi1 hCB1 response” value (Log [Compound] (M) -4.22186) was 4.286, the “Gi1 hCB1 response” value (Log [Compound] (M) -4.63927) was -17.6928 and the “Gi1 hCB1 response” value (Log [Compound] (M) -5.05788) was -21.811. The “Gi1 hCB1 response” value (Log [Compound] (M) -5.47381) was -11.1127, the “Gi1 hCB1 response” value (Log [Compound] (M) -5.89285) was -12.5003 and the “Gi1 hCB1 response” value (Log [Compound] (M) -6.31878) was -6.681. The “Gi1 hCB1 response” value (Log [Compound] (M) -6.72585) was 6.524, the “Gi1 hCB1 response” value (Log [Compound] (M) -7.14267) was -2.6525 and the “Gi1 hCB1 response” value (Log [Compound] (M) -7.55284) was 0.7047. For the same compound, the “Gi1 hCB1 response” value (Log [Compound] (M) -8) was -4.174, the “Gi1 hCB1 response” value (Log [Compound] (M) -8.22186) was 0.4361 and the “Gi1 hCB1 response” value (Log [Compound] (M) -8.39794) was -4.779. The “Gi1 hCB1 response” value (Log [Compound] (M) -8.68787) was 4.89, the “Gi1 hCB1 response” value (Log [Compound] (M) -9.15521) was -2.764 and the “Gi1 hCB1 response” value (Log [Compound] (M) -9.61989) was -2.876. The “Gi1 hCB1 response” value (Log [Compound] (M) -10.0969) was -2.115, the “Gi1 hCB1 response” value (Log [Compound] (M) -10.5529) was 4.689 and the “Gi1 hCB1 response” value (Log [Compound] (M) -11.0177) was -4.667. The “Gi1 hCB1 response” value (Log [Compound] (M) -11.4949) was -5.853, the “Gi1 hCB1 response” value (Log [Compound] (M) -11.9208) was -0.9963 and the “Gi1 hCB1 response” value (Log [Compound] (M) -12.3979) was 1.4433. The “Gi1 hCB1 response” value (Log [Compound] (M) -12.8861) was -2.25, the “Gi1 hCB1 response” value [1] was 4.375 and -8.248 and the “Gi1 hCB1” value (Log [Compound] (M) -4.22186) was 3.789. The “GoB hCB1” value (Log [Compound] (M) -4.22186) was 6.14, the “Gi1 hCB1” value (Log [Compound] (M) -4.63927) was -1.761 and the “GoB hCB1” value (Log [Compound] (M) -4.63927) was -3.176. The “Gi1 hCB1” value (Log [Compound] (M) -5.05788) was -2.054, the “GoB hCB1” value (Log [Compound] (M) -5.05788) was -0.4061 and the “Gi1 hCB1” value (Log [Compound] (M) -5.47381) was 0.08902. The “GoB hCB1” value (Log [Compound] (M) -5.47381) was 1.896, the “Gi1 hCB1” value (Log [Compound] (M) -5.89285) was 0.7519 and the “GoB hCB1” value (Log [Compound] (M) -5.89285) was 0.547. The “Gi1 hCB1” value (Log [Compound] (M) -6.31878) was 0.1815, the “GoB hCB1” value (Log [Compound] (M) -6.31878) was 1.86 and the “Gi1 hCB1” value (Log [Compound] (M) -6.72585) was 1.1836. For the same compound, the “GoB hCB1” value (Log [Compound] (M) -6.72585) was 4.665, the “Gi1 hCB1” value (Log [Compound] (M) -7.14267) was 0.9678 and the “GoB hCB1” value (Log [Compound] (M) -7.14267) was 2.363. The “Gi1 hCB1” value (Log [Compound] (M) -7.55284) was 0.274, the “GoB hCB1” value (Log [Compound] (M) -7.55284) was 5.3306 and the “Gi1 hCB1” value (Log [Compound] (M) -8) was 0.5207. The “GoB hCB1” value (Log [Compound] (M) -8) was 3.155, the “Gi1 hCB1” value (Log [Compound] (M) -8.22186) was 0.08902 and the “GoB hCB1” value (Log [Compound] (M) -8.22186) was -0.8557. For the same compound, the “Gi1 hCB1” value (Log [Compound] (M) -8.39794) was 1.23, the “GoB hCB1” value (Log [Compound] (M) -8.39794) was 3.334 and the “Gi1 hCB1” value (Log [Compound] (M) -8.68787) was 1.214. For the same compound, the “GoB hCB1” value (Log [Compound] (M) -8.68787) was -1.521, the “Gi1 hCB1” value (Log [Compound] (M) -9.15521) was 1.245 and the “GoB hCB1” value (Log [Compound] (M) -9.15521) was -0.6579. The “Gi1 hCB1” value (Log [Compound] (M) -9.61989) was 2.463, the “GoB hCB1” value (Log [Compound] (M) -9.61989) was 0.4211 and the “Gi1 hCB1” value (Log [Compound] (M) -10.0969) was 1.338. The “GoB hCB1” value (Log [Compound] (M) -10.0969) was -1.125, the “Gi1 hCB1” value (Log [Compound] (M) -10.5529) was 0.1353 and the “GoB hCB1” value (Log [Compound] (M) -10.5529) was -0.9456. For the same compound, the “Gi1 hCB1” value (Log [Compound] (M) -11.0177) was 0.5053, the “GoB hCB1” value (Log [Compound] (M) -11.0177) was 3.37 and the “Gi1 hCB1” value (Log [Compound] (M) -11.4949) was 0.5207. For the same compound, the “GoB hCB1” value (Log [Compound] (M) -11.4949) was 5.385, the “Gi1 hCB1” value (Log [Compound] (M) -11.9208) was 1.523 and the “GoB hCB1” value (Log [Compound] (M) -11.9208) was 2.741. For the same compound, the “Gi1 hCB1” value (Log [Compound] (M) -12.3979) was 0.7674, the “GoB hCB1” value (Log [Compound] (M) -12.3979) was 3.263 and the “Gi1 hCB1” value (Log [Compound] (M) -12.8861) was 0.2586. The “GoB hCB1” value (Log [Compound] (M) -12.8861) was 4.072, the “Gi1 hCB1” value (Log [Compound] (M) -13) was 1.954 and 3.465 and the “GoB hCB1” value (Log [Compound] (M) -13) was 3.838 and 3.119.
